Test results: patent publication US20030005484A1, “Microbiocidal and pesticidal aromatic aldehydes” (ProGuard, Inc., priority 1994, published 2003)
Values joined by “and” are separate entries in the source; they are usually repeats but may differ in a detail not shown here. Equal values may be shown once.

Columns and labels:
grape phylloxera eggs = test: whole plant or invertebrate
Experimental: Mixed age groups of 60 grape phylloxera eggs were established on filter paper (Whatman #1, 5.5 cm circles) in 50×9 mm sealed plastic petri dishes treated with 100 μl of solution. A selected concentration of a test formulation of 400 μl was added to the filter disk and the dish closed with the petri dish cover and placed in a plastic container box. After 6 hours, the box was placed in an environmental chamber at 24° C. in the dark. The eggs were placed in groups of 10. After one week, the percentage of hatch is determined. In an initial test, doses from 0.1 to 25,000 ppm cinnamic aldehyde in 6% NaHCO3 and 2% Tween 80 were evaluated with a single group of eggs at each dosage. Three replicates of the experiment were performed. […] LD50 and LD95 were determined by probit analysis.
Grape phylloxera eggs were treated with cinnamaldehyde (CNMA) in a 6% NaHCO3, 2% Tween-80 formulation in a laboratory bioassay. Mortality of the eggs was indicated by failure of the egg shell to split. […] Leaves of one-year-old greenhouse Vitis vinifera cultivar Merlot vines heavily infested with grape phylloxera were sprayed to run-off with a CNMA treatment using the same formulation. […] Roots taken from plants 1, 2 and 5 weeks after CNMA or other treatments were placed in Petri dish bioassays and infested with untreated phylloxera eggs.
Eggs of various age classes were placed on Whatman #1 filter paper moistened with enough treatment solution to form a meniscus about halfway up the sides of the eggs. The pieces of filter paper with eggs were maintained in sealed plastic Petri dishes at […] until they were 7 days old and then hatched individuals were counted. Hatch was considered successful if the […]

powdery mildew = powdery mildew on roses, disease rating / MPDC after foliar spray; type: in vivo, Sphaerotheca pannosa; details: for Powdery Mildew, Post (rating): ~100 ml spray; for Mean % Disease Control, rose powdery mildew: single 100 ml foliar spray
Experimental: Each formulation is evaluated for its effect on specific pests and/or plant host using any of the compounds of formula (1) as well as other components of the formulation such as Tween 80 and/or sodium bicarbonate, with the combination and effective amount of each component adapted for a particular application to minimize toxicity while maintaining or increasing the antipathogenic effect of the formulation. The effective amount of each component may be determined by systematically varying the amount of that component in a test formulation, treating a plant of interest with the test formulation, and monitoring the level of pest infestation compared to an untreated control plant. An effective amount of a test component is identified as the amount that controls the growth of the pathogen on the plant host, thus reducing the disease rating of the plant. The mean percentage disease […] (MPDC) can be calculated for each particular application. MPDC is defined by the formula: [formula] Eight cultivars of rose were tested to investigate the effect of a cinnamic aldehyde/NaHCO3 formulation on rust and spores. The cultivars used included Moss unnamed (Moss), […], Rosette Delize (Hybrid Tea), Rosa Rugosa Rubra (Rugosa), Abel Morrison (Hybrid perpetual), John Laing, Betty Prior, and Rose de Roi. […] The Hybrid Tea and Hybrid perpetual were rated 3 and the Rugosa was rated 1. […] Control plants received no treatment. […] Moreover, the treatment appeared to have induced systemic resistance. […] Plants were an average of 0.86 m apart. […] Controls were untreated plants. […] Weekly reviews were made of the various plants. […] of infected rose in dedicated experimental rose gardens were used. Four Mrs. John Laing (Hybrid perpetual) and two Marchionese of Londonderry (Hybrid perpetual) rose plants were treated with one of two formulations of coniferyl aldehyde. […] The first two Mrs. […] Mrs. […] Both Marchionese of Londonderry plants (P5 and P6) were rated 5 for powdery mildew and rust after Paulus and Nelson (supra). Two treatment formulae were used for this trial. […] Control plants were sprayed with water alone. The change in the rating from pre-treatment to post-treatment was calculated as the mean percentage of disease control (MPDC) as described herein. A three treatment experiment with cinnamic aldehyde formula, coniferyl aldehyde formula and combined cinnamic and coniferyl aldehyde formula was carried out on field grown roses known to be susceptible to powdery mildew. The plants were blocked by variety before fungicide treatments and were randomized as to the plants. Two varieties were used in each of the three experiments described below. […] In experiment 3 Comte de Chambord (Portland) and Madame Pierre Oger (Bourbon) were used. In Experiment 1, the effect of cinnamic aldehyde alone and in combination with Tween 80 and/or NaHCO3 component was evaluated in experiment 2 the effect of coniferyl aldehyde alone and in combination with Tween 80 and/or NaHCO3 was evaluated and in experiment 3 a combination of cinnamic aldehyde and coniferyl aldehyde with Tween 80 and/or NaHCo3 was evaluated. […] See Table 3 for the treatment protocol; formula 1 was used for these experiments. […] Plants were evaluated using the Paulus/Nelson scale just prior to and four days after treatment. […] Moreover, cinnamic aldehyde, coniferyl aldehyde, Tween 80 and NaHCO3 are used in the food industry and there is likely to be little toxicological risk to the consumer or handler from any horticultural or food crop sprayed in this way. Similarly, as these chemicals leave no toxic residue, there is little chance of any detrimental effect on the wider environment, and their use is likely to be compatible with current biological control methods such as beneficial insects and/or microorganisms.

aphids = aphids on sprayed roses; type: in vivo; details: plants P3 (T2) and P4 (T1), each with >35 insects before treatment
rust = rust (and spores) on roses, disease rating / MPDC after foliar spray; type: in vivo, Phragmidrium mucronatrum
Experimental: Each formulation is evaluated for its effect on specific pests and/or plant host using any of the compounds of formula (1) as well as other components of the formulation such as Tween 80 and/or sodium bicarbonate, with the combination and effective amount of each component adapted for a particular application to minimize toxicity while maintaining or increasing the antipathogenic effect of the formulation. The effective amount of each component may be determined by systematically varying the amount of that component in a test formulation, treating a plant of interest with the test formulation, and monitoring the level of pest infestation compared to an untreated control plant. An effective amount of a test component is identified as the amount that controls the growth of the pathogen on the plant host, thus reducing the disease rating of the plant. The mean percentage disease […] (MPDC) can be calculated for each particular application. MPDC is defined by the formula: [formula] Eight cultivars of rose were tested to investigate the effect of a cinnamic aldehyde/NaHCO3 formulation on rust and spores. The cultivars used included Moss unnamed (Moss), […], Rosette Delize (Hybrid Tea), Rosa Rugosa Rubra (Rugosa), Abel Morrison (Hybrid perpetual), John Laing, Betty Prior, and Rose de Roi. […] The Hybrid Tea and Hybrid perpetual were rated 3 and the Rugosa was rated 1. […] Control plants received no treatment. […] Moreover, the treatment appeared to have induced systemic resistance. […] Plants were an average of 0.86 m apart. […] Controls were untreated plants. […] Weekly reviews were made of the various plants. […] Six cultivars of infected rose in dedicated experimental rose gardens were used. Four Mrs. John Laing (Hybrid perpetual) and two Marchionese of Londonderry (Hybrid perpetual) rose plants were treated with one of two formulations of coniferyl aldehyde. […] The first two Mrs. […] Mrs. […] Both Marchionese of Londonderry plants (P5 and P6) were rated 5 for powdery mildew and rust after Paulus and Nelson (supra). Two treatment formulae were used for this trial. […] Control plants were sprayed with water alone. The change in the rating from pre-treatment to post-treatment was calculated as the mean percentage of disease control (MPDC) as described herein.

[1] = test system: thrips insects (Frankliniella occidentalis); test: residual activity on filter paper against thrips; type: in vivo; details: residue on filter paper, rehydrated 24 and 72 hours after spraying; thrips mortality after one hour
Experimental: In the first experiment, two ml of two concentrations of CNMA (0.3 and 1%) were sprayed on filter paper (Whatman). As a negative control, two ml of water also were sprayed on filter paper. Twenty-four hours later, two ml of water were sprayed on treatment and control filter paper, which were then dried for 30 min. Approximately 30 thrips insects (Frankliniella occidentalis) were introduced and the number of F. occidentalis were observed after one hour. Mean mortality was calculated for each treatment.
After 72 hours, the treatment filter papers were flipped over and only the negative control filter paper and the filter paper treated with 1% CNMA were sprayed with 2 ml of water and allowed to dry for 30 minutes. Approximately 30 thrips were introduced to the two treated filter papers and after one hour the number of dead F. occidentalis were observed and the mean mortality calculated for each treatment. A similar assay was conducted using a-hexyl cinnamaldehyde. Mean mortality was higher for rehydrated filter papers compared to non-rehydrated filter papers over time.

[2] = test system: melon aphid (Aphis gossypii Glover); test: melon aphid on chrysanthemum leaves, 5% HCA formulations; type: in vivo; details: 5% HCA (emulsion with 1% Tween 20 in water, or microencapsulated); 24 hours
Experimental: For each test, treatment cartons received the active ingredient as a 5% aqueous emulsion or as microcapsules in either beeswax or carnauba wax. The negative control was a water only treatment. Sprays of each treatment were applied using a laboratory spray tower calibrated to spray the field equivalent of 113 liters per acre. The paper carton arenas were maintained at room temperature. Experimental cartons were examined at 24 hours post-treatment and % mortality determined (see FIG. 3). Every treatment regimen killed 100% of the melon aphids at 24 hours.

[3] = 25° C; cited from earlier work
[4] = 1000 ppm in 6% NaHCO3, 2% Tween 80, 7 days
[5] = T1 low dose: 5 g coniferyl aldehyde, 10 g Tween 80, 80 g NaHCO3 per 1000 g, plants P1, P4, P6
[6] = T2 high dose: 100 g coniferyl aldehyde, 20 g Tween 80, 120 g NaHCO3 per 1000 g, plants P2, P3, P5
[7] = baseline before T1 low dose, plants P1, P4, P6
[8] = baseline before T2 high dose, plants P2, P3, P5

## COc1cc(/C=C/C=O)ccc1O [coniferyl aldehyde]
Grape phylloxera eggs; [4]
  eggs hatched incompletely (IH): 85%
  nymphs that died in the shell (DIS): 12%
Grape phylloxera eggs; 5000 ppm aldehyde in 6% NaHCO3, 2% Tween 80, 7 days
  nymphs that died in the shell (DIS): 10%
Powdery mildew; [5]
  Powdery Mildew, Post (rating): 2 (2=26-50) and 1 (1=1-25)
Powdery mildew; [6]
  Powdery Mildew, Change in rating: 3 and 4
  Powdery Mildew, Post (rating): 2 (2=26-50) and 1 (1=1-25)
Powdery mildew; aldehyde 5 g (mixture 2.5 g + 2.5 g) with NaHCO3 (80 g), four days
  Mean % Disease Control, rose powdery mildew: 44%
Powdery mildew; aldehyde 5 g (mixture 2.5 g + 2.5 g) with T80 (10 g), four days
  Mean % Disease Control, rose powdery mildew: 44%
Powdery mildew; aldehyde 5 g (mixture 2.5 g + 2.5 g) with T80 + NaHCO3 (formulas G, M, Q), four days
  Mean % Disease Control, rose powdery mildew: 81%
Powdery mildew; aldehyde 5 g (mixture 2.5 g + 2.5 g), no additive, rated four days after treatment
  Mean % Disease Control, rose powdery mildew: 56%
Powdery mildew; [7]
  Powdery Mildew, Pre (rating): 3 (3=51-75) and 4 (4=76-90)
Powdery mildew; [8]
  Powdery Mildew, Pre (rating): 5 (5=>90% total leaves per bush)
aphids
  aphids on treated rose plants: eliminated
rust; [5]
  Rust (rating), Change: 1 and 2
rust; [6]
  Rust (rating), Change: 3 and 4
  Rust (rating), Post: 2 (2=26-50) and 1 (1=1-25)
rust; [7]
  Rust (rating), Pre: 3 (3=51-75) and 4 (4=76-90)
rust; [8]
  Rust (rating), Pre: 5 (5=>90% total leaves per bush)

## CCCCCC/C(C=O)=C/c1ccccc1 [HCA, 2-hexyl-3-phenyl-2-propenal]
[1]
  residual activity: have residual activity
[2]
  melon aphids killed: 100%
Grape phylloxera eggs; 560 ppm, egg tests with CNMA analogs
  egg hatch failure / mortality at 560 ppm: no hatch failure at 560 ppm; rapid
Grape phylloxera eggs; Daktulosphaira vitifoliae, read-out: rapid nymphal mortality
  mortality at 100 ppm: 100%
[3]
  vapor pressure: 70×10^−5 mm Hg

## CCN(CC)c1cccc(C)c1 [N,N-diethyl-m-toluamine, reference compound]
[3]
  vapor pressure: 167×10^−5 mm Hg
